Data as given in BigSolDB 2.1.

O=c1c(-c2ccc(O)cc2)coc2cc(O[C@@H]3O[C@H](CO)[C@@H](O)[C@H](O)[C@H]3O)ccc12
solubility (mole fraction)
Conditions	283.2 K	293.2 K	303.2 K	313.2 K	323.2 K
in THF	0.000784	0.00182	0.00684	0.0165	0.0417
in acetone	0.000148	0.000241	0.000326	0.000458	0.000553
in acetonitrile	5.77e-06	9e-06	1.4e-05	2e-05	3.3e-05
in chloroform	3.83e-07	8.76e-07	1.6e-06	2.36e-06	3.2e-06
in cyclohexane	1.25e-07	2.95e-07	5.56e-07	1.02e-06	1.37e-06
in ethanol	0.000291	0.000397	0.000499	0.000669	0.000813
in ethyl acetate	5.38e-06	7.88e-06	1.58e-05	4.24e-05	6.74e-05
in isopropanol	0.00016	0.000202	0.000283	0.000427	0.000503
in methanol	8.78e-05	0.000162	0.000339	0.000516	0.000794
in n-butanol	0.000141	0.000211	0.000253	0.000353	0.000479
in water	2.36e-06	4.1e-06	6.91e-06	9.39e-06	1.58e-05
